For one molecule, Ki results are on record in patent publication US6444819B1, “Benzylpiperazinyl and piperidinyl ethanone derivatives: dopamine receptor subtype specific ligands” (Neurogen Corporation, priority 1998, dated 2002).

The test has as its target T1, human D4 receptors (Homo sapiens, UniProt P21917).
T1 construct: expressed in transfected cells; host or cells: CHO cells
T1 sequence (P21917 1-419): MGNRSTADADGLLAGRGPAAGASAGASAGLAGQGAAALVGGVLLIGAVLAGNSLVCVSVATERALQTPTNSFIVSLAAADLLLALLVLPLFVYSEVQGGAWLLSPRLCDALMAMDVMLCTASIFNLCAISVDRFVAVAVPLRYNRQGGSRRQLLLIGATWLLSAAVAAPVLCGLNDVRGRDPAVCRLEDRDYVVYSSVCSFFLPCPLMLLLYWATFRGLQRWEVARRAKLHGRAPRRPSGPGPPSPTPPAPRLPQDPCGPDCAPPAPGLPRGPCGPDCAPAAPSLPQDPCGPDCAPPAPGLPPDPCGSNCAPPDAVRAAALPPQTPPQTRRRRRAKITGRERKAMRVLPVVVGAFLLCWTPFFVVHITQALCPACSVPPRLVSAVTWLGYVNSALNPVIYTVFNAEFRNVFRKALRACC
The test is described as follows: D4 receptor binding assay (3H-YM 09151-2 displacement). The following applies: CHO cell membranes with cloned human D4 receptor; 0.5 nM 3H-YM 09151-2.

Description: The cloned membranes are homogenized in 100 volumes (wt/vol) of 0.05 M Tris-HCl buffer at 4° C. and pH 7.4 containing 120 mM NaCl, 1 mM EDTA and 5 mM MgCl2. The samples were centrifuged at 48,000×g then re-suspended and re-homogenized. The final tissue sample is kept frozen until use. The tissue is resuspended 1:20 (wt/vol) in 0.05 M Tris-HCl buffer containing 120 mM NaCl prior to use.
Non-specific binding is defined as that binding found in the presence of 1 mM spiperone; without further additions, nonspecific binding is less than 20% of total binding.

In the case of `CCCCN(C(=O)CN1CCN(Cc2ccc(Cl)cc2)CC1)c1ccccc1` [Compound 2, N-butyl-2-(4-(4-chlorobenzyl)piperazinyl)-N-phenylethanamide], affinity was put at a Ki of 154 nM.
